Measurements reported in patent publication US8518896B2, “Treatment of cancers of the blood using selected glycomimetic compounds” (Glycomimetics, Inc., priority 2008, dated 2013).

System: neutrophils
Details: mice; 5-FU 150 mg/kg i.p. or cyclophosphamide 300 mg/kg i.p.; lasts for at least one week
Experimental: At varying time points after treatment, blood samples are taken from the mice and analyzed for different cell types including neutrophils.
As diagrammed in FIG. 10, mice are treated with Compound #2 for 14 days by intraperitoneal injections (50 mg/kg) twice a day. On day 12 within this treatment period, a cohort of mice receives an injection of a chemotherapeutic drug; either 5-fluorouracil (150 mg/kg i.p.) or cyclophosphamide (300 mg/kg i.p.). On the third day after treatment with Compound #2, blood is obtained by cardiac puncture from one cohort of mice to determine a complete blood count (CBC). Other cohorts of mice are bled and analyzed (CBC) on days 5, 7, 9 and 15 after Compound #2 treatment.

How did the “neutropenia caused by the chemotherapeutic drug” value turn out when O=P1(N(CCCl)CCCl)NCCCO1 (stereo not shown) [cyclophosphamide] was run?
The value was “severe neutropenia”.
